Measured values from PubChem BioAssay (NCI).
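Cells were grown in 96-well plates and exposed to each compound for 48 hours at five concentrations; endpoints were interpolated linearly between bracketing concentrations, or set to the highest concentration if not reached. Abbreviation: GI50, concentration required for 50% inhibition of growth. TGI is the concentration that stops growth completely.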

Assays:
Assay in all cases: NCI-60 cell line screen, 48 h
786-0 renal = tested on: 786-0 renal
A498 renal = tested on: A498 renal
A549 NSCLC = tested on: A549 NSCLC
ACHN renal = tested on: ACHN renal
BT-549 breast = tested on: BT-549 breast
CAKI-1 renal = tested on: CAKI-1 renal
CCRF-CEM leukemia = tested on: CCRF-CEM leukemia
COLO 205 colon = tested on: COLO 205 colon
DU-145 prostate = tested on: DU-145 prostate
EKVX NSCLC = tested on: EKVX NSCLC
HCT-116 colon = tested on: HCT-116 colon
HCT-15 colon = tested on: HCT-15 colon
HL-60(TB) leukemia = tested on: HL-60(TB) leukemia
HOP-62 NSCLC = tested on: HOP-62 NSCLC
HOP-92 NSCLC = tested on: HOP-92 NSCLC
HS 578T breast = tested on: HS 578T breast
HT29 colon = tested on: HT29 colon
IGROV1 ovarian = tested on: IGROV1 ovarian
K-562 leukemia = tested on: K-562 leukemia
KM12 colon = tested on: KM12 colon
LOX IMVI melanoma = tested on: LOX IMVI melanoma
M14 melanoma = tested on: M14 melanoma
MALME-3M melanoma = tested on: MALME-3M melanoma
MCF7 breast = tested on: MCF7 breast
MDA-MB-231 breast = tested on: MDA-MB-231 breast
MDA-MB-435 = tested on: MDA-MB-435
MOLT-4 leukemia = tested on: MOLT-4 leukemia
NCI-H226 lung = tested on: NCI-H226 lung
NCI-H23 lung = tested on: NCI-H23 lung
NCI-H460 lung = tested on: NCI-H460 lung
NCI-H522 lung = tested on: NCI-H522 lung
NCI/ADR-RES ovarian = tested on: NCI/ADR-RES ovarian
OVCAR-3 ovarian = tested on: OVCAR-3 ovarian
OVCAR-4 ovarian = tested on: OVCAR-4 ovarian
OVCAR-5 ovarian = tested on: OVCAR-5 ovarian
OVCAR-8 ovarian = tested on: OVCAR-8 ovarian
PC-3 prostate = tested on: PC-3 prostate
RPMI-8226 leukemia = tested on: RPMI-8226 leukemia
RXF 393 renal = tested on: RXF 393 renal
SF-268 CNS = tested on: SF-268 CNS
SF-295 CNS = tested on: SF-295 CNS
SF-539 CNS = tested on: SF-539 CNS
SK-MEL-2 melanoma = tested on: SK-MEL-2 melanoma
SK-MEL-28 melanoma = tested on: SK-MEL-28 melanoma
SK-MEL-5 melanoma = tested on: SK-MEL-5 melanoma
SK-OV-3 ovarian = tested on: SK-OV-3 ovarian
SN12C renal = tested on: SN12C renal
SNB-19 CNS = tested on: SNB-19 CNS
SNB-75 CNS = tested on: SNB-75 CNS
SR leukemia = tested on: SR leukemia
SW-620 colon = tested on: SW-620 colon
T-47D breast = tested on: T-47D breast
TK-10 renal = tested on: TK-10 renal
U251 CNS = tested on: U251 CNS
UACC-257 melanoma = tested on: UACC-257 melanoma
UACC-62 melanoma = tested on: UACC-62 melanoma
UO-31 renal = tested on: UO-31 renal

Structure (SMILES): CCOc1ccc(Nc2nc(-c3ccc4c(c3)NC(=O)CO4)cs2)cc1
- GI50 (786-0 renal): 14.3 µM
- TGI (786-0 renal): > 100 µM
- GI50 (A498 renal): 13.6 µM
- TGI (A498 renal): 55.4 µM
- GI50 (A549 NSCLC): 5.14 µM
- TGI (A549 NSCLC): > 100 µM
- GI50 (ACHN renal): 6.96 µM
- TGI (ACHN renal): > 100 µM
- GI50 (BT-549 breast): 2.56 µM
- TGI (BT-549 breast): 20.7 µM
- GI50 (CAKI-1 renal): 19 µM
- TGI (CAKI-1 renal): 90.7 µM
- GI50 (CCRF-CEM leukemia): 6.28 µM
- TGI (CCRF-CEM leukemia): > 100 µM
- GI50 (COLO 205 colon): 11.1 µM
- TGI (COLO 205 colon): 33.6 µM
- GI50 (DU-145 prostate): 30.8 µM
- TGI (DU-145 prostate): > 100 µM
- GI50 (EKVX NSCLC): 6.59 µM
- TGI (EKVX NSCLC): > 100 µM
- GI50 (HCT-116 colon): 4.01 µM
- TGI (HCT-116 colon): > 100 µM
- GI50 (HCT-15 colon): 4.74 µM
- TGI (HCT-15 colon): > 100 µM
- GI50 (HL-60(TB) leukemia): 2.14 µM
- TGI (HL-60(TB) leukemia): 8.17 µM
- GI50 (HOP-62 NSCLC): 15.4 µM
- TGI (HOP-62 NSCLC): > 100 µM
- GI50 (HOP-92 NSCLC): 12.4 µM
- TGI (HOP-92 NSCLC): > 100 µM
- GI50 (HS 578T breast): 22.5 µM
- TGI (HS 578T breast): > 100 µM
- GI50 (HT29 colon): 5.74 µM
- TGI (HT29 colon): > 100 µM
- GI50 (IGROV1 ovarian): 15.5 µM
- TGI (IGROV1 ovarian): > 100 µM
- GI50 (K-562 leukemia): 4.86 µM
- TGI (K-562 leukemia): > 100 µM
- GI50 (KM12 colon): 11.1 µM
- TGI (KM12 colon): > 100 µM
- GI50 (LOX IMVI melanoma): 5.33 µM
- TGI (LOX IMVI melanoma): > 100 µM
- GI50 (M14 melanoma): 4.33 µM
- TGI (M14 melanoma): 17.4 µM
- GI50 (MALME-3M melanoma): 4.71 µM
- TGI (MALME-3M melanoma): 20.4 µM
- GI50 (MCF7 breast): 3.18 µM
- TGI (MCF7 breast): 23.3 µM
- GI50 (MDA-MB-231 breast): 21.1 µM
- TGI (MDA-MB-231 breast): > 100 µM
- GI50 (MDA-MB-435): 2.95 µM
- TGI (MDA-MB-435): 11.3 µM
- GI50 (MOLT-4 leukemia): 2.01 µM
- TGI (MOLT-4 leukemia): 5.28 µM
- GI50 (NCI-H226 lung): 10 µM
- TGI (NCI-H226 lung): > 100 µM
- GI50 (NCI-H23 lung): 6.96 µM
- TGI (NCI-H23 lung): > 100 µM
- GI50 (NCI-H460 lung): 4.37 µM
- TGI (NCI-H460 lung): > 100 µM
- GI50 (NCI-H522 lung): 4.27 µM
- TGI (NCI-H522 lung): 37.1 µM
- GI50 (NCI/ADR-RES ovarian): 4.12 µM
- TGI (NCI/ADR-RES ovarian): > 100 µM
- GI50 (OVCAR-3 ovarian): 20.2 µM
- TGI (OVCAR-3 ovarian): > 100 µM
- GI50 (OVCAR-4 ovarian): 3.51 µM
- TGI (OVCAR-4 ovarian): > 100 µM
- GI50 (OVCAR-5 ovarian): > 100 µM
- TGI (OVCAR-5 ovarian): > 100 µM
- GI50 (OVCAR-8 ovarian): 4 µM
- TGI (OVCAR-8 ovarian): > 100 µM
- GI50 (PC-3 prostate): 3.04 µM
- TGI (PC-3 prostate): 32.8 µM
- GI50 (RPMI-8226 leukemia): 14.9 µM
- TGI (RPMI-8226 leukemia): > 100 µM
- GI50 (RXF 393 renal): 16.1 µM
- TGI (RXF 393 renal): 62.4 µM
- GI50 (SF-268 CNS): 36.7 µM
- TGI (SF-268 CNS): > 100 µM
- GI50 (SF-295 CNS): 4.92 µM
- TGI (SF-295 CNS): > 100 µM
- GI50 (SF-539 CNS): 16.1 µM
- TGI (SF-539 CNS): > 100 µM
- GI50 (SK-MEL-2 melanoma): 3.98 µM
- TGI (SK-MEL-2 melanoma): 13.8 µM
- GI50 (SK-MEL-28 melanoma): 4.29 µM
- TGI (SK-MEL-28 melanoma): 19.6 µM
- GI50 (SK-MEL-5 melanoma): 1.65 µM
- TGI (SK-MEL-5 melanoma): 3.5 µM
- GI50 (SK-OV-3 ovarian): 32.5 µM
- TGI (SK-OV-3 ovarian): > 100 µM
- GI50 (SN12C renal): 49.4 µM
- TGI (SN12C renal): > 100 µM
- GI50 (SNB-19 CNS): 18.9 µM
- TGI (SNB-19 CNS): > 100 µM
- GI50 (SNB-75 CNS): 18 µM
- TGI (SNB-75 CNS): > 100 µM
- GI50 (SR leukemia): 4.68 µM
- TGI (SR leukemia): > 100 µM
- GI50 (SW-620 colon): 19.6 µM
- TGI (SW-620 colon): > 100 µM
- GI50 (T-47D breast): 1.94 µM
- TGI (T-47D breast): 10.4 µM
- GI50 (TK-10 renal): 9.98 µM
- TGI (TK-10 renal): > 100 µM
- GI50 (U251 CNS): 10.7 µM
- TGI (U251 CNS): > 100 µM
- GI50 (UACC-257 melanoma): 3.37 µM
- TGI (UACC-257 melanoma): 11 µM
- GI50 (UACC-62 melanoma): 6.94 µM
- TGI (UACC-62 melanoma): 23.5 µM
- GI50 (UO-31 renal): 5.47 µM
- TGI (UO-31 renal): > 100 µM
